Laboratory results published in patent publication US20250332300A1 (priority 2024, published 2025).
Read-outs that look alike come from different tables or passages of the source. Starred links: 1 amine or outer side, 2 acyl side, 3 side chain; linkers in the order of their positions; H or OH if unused. Positions of bridges follow the written chain, without caps; N, C: chain ends. Non-standard residues stand in square brackets, D forms with d. Residues, ends and D or L forms follow the SMILES beside them. *: point of attachment. DOTA = O=C(O)CN1CCN(CC(=O)O)CCN(CC(=O)*)CCN(CC(=O)O)CC1; Trp(5-OH) = N[C@@H](Cc1c[nH]c2ccc(O)cc12)C(=O)O; NMePhe(4-F) = CN[C@@H](Cc1ccc(F)cc1)C(=O)O; NMehPhe = CN[C@@H](CCc1ccccc1)C(=O)O; Aad = N[C@@H](CCCC(=O)O)C(=O)O; Gly(cPr) = N[C@H](C(=O)O)C1CC1; NMeK = CN[C@@H](CCCCN)C(=O)O; NMeDap = CN[C@@H](CN)C(=O)O; hLys = NCCCCC[C@H](N)C(=O)O; Orn = NCCC[C@H](N)C(=O)O; X6 = O=C(C[*:1])[*:2]

Columns and labels:
Assay type in all cases: binding
human HER2 (23-652) [1] = molecular target: T1, human HER2 (23-652) (Homo sapiens, UniProt P04626); assay: TR-FRET competition assay for peptide potency, human HER2; parameters: towards human HER2 (23-652) and mouse HER2 (23-653); made in house; host or cells: mammalian cells
Experimental: (§1) Both proteins containing a His-, Avi-tag and biotin in Nterminus, were expressed in mammalian cells and produced in house. […] Standard assay conditions consist of 20 uL total volume in white 384-well plates (Greiner), in 10 mM HEPES buffer containing 150 mM NaCl, 3 mM EDTA, 0.05% Tween20 and 1% final DMSO. […] The ratiometric FRET assay readout is calculated from the ratio of the raw data of the two distinct fluorescence signals measured in time resolved mode (fluorescence 665 nm/fluorescence 620 nm). IC50 values were calculated with the standard Novartis in-house assay data analysis software (Helios software application, Novartis Institutes for BioMedical Research, unpublished) using the methods described in Comput. Methods. Programs. Biomed. 2006, 82, 31-37 (regression algorithms for nonlinear dose-response curve fitting).

human HER2 (23-652) [2] = molecular target: T1, human HER2 (23-652); assay: Surface plasmon resonance (SPR) for assessment of peptide affinity, human HER2; parameters: towards human HER2 (23-652) and mouse HER2 (23-653); made in house
Experimental: Each protein was immobilized either onto a SA sensorchip (Cytiva, BR-1005-31) or CM5 sensorchip (Cytiva, BR-1005-30) to a density of 800-2000 RU. […] For the assay setup the same conditions (flow rate, running buffer, peptide dilution) as described above were used. In a first step the Anti Fc IgG Ab (from Human Antibody Capture Kit, Ref. 29234600, Cytiva) was diluted into acetate pH 5.0 at 25 ug/mL and immobilized at a flow rate of 10 uL/min over 360 s to reach a density around 6000 RU. […] The peptides were tested with an association time of 280 s followed by a dissociation time of 3000 s at a flow rate of 30 uL/min. The regeneration was done using 3 M magnesium chloride regeneration solution as obtained with a contact time of 30 s at a flow rate of 10 uL/min. Curve fitting was performed using the BiacoreTM 8K evaluation software.

mouse HER2 (23-653) = mouse HER2 (23-653) (Mus musculus, UniProt P70424); assay: TR-FRET competition assay for peptide potency, mouse HER2; parameters: mouse HER2 (23-653) using a Cy5 labeled peptide as a probe; made in house; host or cells: mammalian cells
Experimental: as §1

[3] = SPR, human HER2 extracellular domain, 25° C., 1:1 binding model; read-out: huHER2-SPR-ONC KD
[4] = TR-FRET competition with Cy5 labeled peptide probe, 0.1 nM mouse HER2, 24 h incubation; read-out: moHER2 TR-FRET IC50
[5] = TR-FRET competition with Cy5 labeled peptide probe, 0.1 nM human HER2, 24 h incubation; read-out: huHER2 TR-FRET IC50

T1 sequence (P04626 23-652): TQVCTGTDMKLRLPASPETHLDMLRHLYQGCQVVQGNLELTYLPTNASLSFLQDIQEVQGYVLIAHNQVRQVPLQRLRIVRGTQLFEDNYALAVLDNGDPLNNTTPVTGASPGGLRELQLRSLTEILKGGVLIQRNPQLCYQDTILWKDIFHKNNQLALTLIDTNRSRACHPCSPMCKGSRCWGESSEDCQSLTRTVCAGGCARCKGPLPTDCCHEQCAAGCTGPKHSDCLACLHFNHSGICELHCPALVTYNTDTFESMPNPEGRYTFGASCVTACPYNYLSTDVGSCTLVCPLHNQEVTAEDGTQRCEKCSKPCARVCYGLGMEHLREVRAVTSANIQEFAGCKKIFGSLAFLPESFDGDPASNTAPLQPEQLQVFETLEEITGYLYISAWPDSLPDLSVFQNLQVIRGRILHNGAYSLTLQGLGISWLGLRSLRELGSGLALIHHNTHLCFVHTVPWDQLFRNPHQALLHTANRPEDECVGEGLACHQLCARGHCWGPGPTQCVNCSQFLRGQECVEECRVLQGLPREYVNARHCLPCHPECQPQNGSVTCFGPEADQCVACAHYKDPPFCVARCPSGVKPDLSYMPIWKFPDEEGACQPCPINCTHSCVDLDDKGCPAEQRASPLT

| IC50 (human HER2 (23-652) [1]; read-out: huHER2 TR-FRET IC50) [nM] | Kd (human HER2 (23-652) [2]; [3]) [nM] | IC50 (mouse HER2 (23-653); [4]) [nM] | IC50 (human HER2 (23-652) [1]; [5]) [nM] | SMILES | IC50 (human HER2 (23-652) [1]; read-out: huHER2 TR-FRET IC50; TR-FRET competition with Cy5 labeled peptide probe, 0.1 nM human HER2, 24 h incubation) [nM] | Kd (human HER2 (23-652) [2]; read-out: huHER2-SPR-ONC KD; SPR, human HER2 extracellular domain, 25° C., 1:1 binding model) [nM] | IC50 (mouse HER2 (23-653); read-out: moHER2 TR-FRET IC50; TR-FRET competition with Cy5 labeled peptide probe, 0.1 nM mouse HER2, 24 h incubation) [nM] |
| --- | --- | --- | --- | --- | --- | --- | --- |
| < 0.1 | < 0.1 | 0.2 | – | COCCOCCOCCOCCOCCOCCOCCOCCOCCOCCOCCOCCC(=O)N[C@H]1CCCC(=O)NC[C@@H](C(=O)N(C)[C@@H](Cc2ccc(F)cc2)C(=O)N[C@@H](CCCCNC(=O)CN2CCN(CC(=O)O)CCN(CC(=O)O)CC2)C(N)=O)N(C)C(=O)[C@H](C2CC2)NC(=O)[C@H](Cc2c[nH]c3ccccc23)NC(=O)[C@H](Cc2c[nH]c3ccc(O)cc23)NC(=O)[C@H](CCCCNC(C)=O)N(C)C(=O)[C@H](CCc2ccccc2)N(C)C(=O)[C@H](CO)NC(=O)[C@H](Cc2ccc(O)cc2)NC1=O [Example B11] | – | – | – |
| – | < 0.1 | 0.1 | < 0.1 | CC(=O)NCCCC[C@H]1C(=O)N[C@@H](Cc2c[nH]c3ccc(O)cc23)C(=O)N[C@@H](Cc2c[nH]c3ccccc23)C(=O)N[C@@H](C2CC2)C(=O)N(C)[C@H](C(=O)N(C)[C@@H](Cc2ccc(F)cc2)C(=O)N[C@@H](CCCCNC(=O)CN2CCN(CC(=O)O)CCN(CC(=O)O)CCN(CC(=O)O)CC2)C(N)=O)CNC(=O)COC[C@H](NC(C)=O)C(=O)N[C@@H](Cc2ccc(O)cc2)C(=O)N[C@@H](CO)C(=O)N(C)[C@@H](CCc2ccccc2)C(=O)N1C [Example C16] (Ac-SYS[NMehPhe][NMeK](Ac)[Trp(5-OH)]W[Gly(cPr)][NMeDap][NMePhe(4-F)]K(DOTA)-NH2; linker 1-9 via X6) | – | – | – |
| – | < 0.1 | 0.2 | < 0.1 | CC(=O)NCCCC[C@H]1C(=O)N[C@@H](Cc2c[nH]c3ccc(O)cc23)C(=O)N[C@@H](Cc2c[nH]c3ccccc23)C(=O)N[C@@H](C2CC2)C(=O)N(C)[C@H](C(=O)N(C)[C@@H](Cc2ccc(F)cc2)C(=O)N[C@@H](CCCNC(=O)CN2CCN(CC(=O)O)CCN(CC(=O)O)CCN(CC(=O)O)CC2)C(N)=O)CNC(=O)CCC[C@H](NC(C)=O)C(=O)N[C@@H](Cc2ccc(O)cc2)C(=O)N[C@@H](CO)C(=O)N(C)[C@@H](CCc2ccccc2)C(=O)N1C [Example C9] (Ac-[Aad]YS[NMehPhe][NMeK](Ac)[Trp(5-OH)]W[Gly(cPr)][NMeDap][NMePhe(4-F)][Orn](DOTA)-NH2; lactam 1-9) | – | – | – |
| – | < 0.1 | 0.1 | < 0.1 | CC(=O)NCCCC[C@H]1C(=O)N[C@@H](Cc2c[nH]c3ccc(O)cc23)C(=O)N[C@@H](Cc2c[nH]c3ccccc23)C(=O)N[C@@H](C2CC2)C(=O)N(C)[C@H](C(=O)N(C)[C@@H](Cc2ccc(F)cc2)C(=O)N[C@@H](CCCCCNC(=O)CN2CCN(CC(=O)O)CCN(CC(=O)O)CCN(CC(=O)O)CC2)C(N)=O)CNC(=O)CCC[C@H](NC(C)=O)C(=O)N[C@@H](Cc2ccc(O)cc2)C(=O)N[C@@H](CO)C(=O)N(C)[C@@H](CCc2ccccc2)C(=O)N1C [Example C17] (Ac-[Aad]YS[NMehPhe][NMeK](Ac)[Trp(5-OH)]W[Gly(cPr)][NMeDap][NMePhe(4-F)][hLys](DOTA)-NH2; lactam 1-9) | – | – | – |
| – | – | – | – | CC(=O)NCCCC[C@H]1C(=O)N[C@@H](Cc2c[nH]c3ccc(O)cc23)C(=O)N[C@@H](Cc2c[nH]c3ccccc23)C(=O)N[C@@H](C2CC2)C(=O)N(C)[C@H](C(=O)N(C)[C@@H](Cc2ccc(F)cc2)C(=O)N[C@@H](CCCCNC(=O)CN2CCN(CC(=O)O)CCN(CC(=O)O)CCN(CC(=O)O)CC2)C(N)=O)CNC(=O)CCC[C@H](NC(=O)Cc2nnn[nH]2)C(=O)N[C@@H](Cc2ccc(O)cc2)C(=O)N[C@@H](CO)C(=O)N(C)[C@@H](CCc2ccccc2)C(=O)N1C [Example C13] | < 0.1 | < 0.1 | 0.1 |
| < 0.1 | < 0.1 | 0.3 | – | COCCOCCOCCOCCOCCOCCOCCOCCOCCOCCOCCOCCC(=O)N[C@H]1CCCC(=O)NC[C@@H](C(=O)N(C)[C@@H](Cc2ccc(F)cc2)C(=O)N[C@@H](CCCCNC(=O)c2ccc(F)nc2)C(N)=O)N(C)C(=O)[C@H](C2CC2)NC(=O)[C@H](Cc2c[nH]c3ccccc23)NC(=O)[C@H](Cc2c[nH]c3ccc(O)cc23)NC(=O)[C@H](CCCCNC(C)=O)N(C)C(=O)[C@H](CCc2ccccc2)N(C)C(=O)[C@H](CO)NC(=O)[C@H](Cc2ccc(O)cc2)NC1=O [Example F3] | – | – | – |
